In patent publication US5780434A, “Composition for oral administration of peptides” (Ferring B.V., priority 1993, dated 1998):

Tests used:
[1] = human, in vivo
Experimental: Experiments with healthy volunteers. After having fasted for 8 hours six healthy male volunteers were intubated (cf. example 1) with quadruple lumen flexible PVC tubes. The open end of the tube was positioned in the duodenum close to the pylorus; correct positioning was verified fluoroscopically. DDAVP acetate (0.4 mg in 2 ml 0.9% aqueous sodium chloride) was applied at the start and the tube was rinsed with 2 ml 0.9% aqueous sodium chloride. Perfusion with aprotinin (ANTAGOSAN™, Hoechst, Germany; aqueous solution, 10,000 kallikrein inactivator units/ml) started immediately after application of DDAVP and continued for 4 h at a rate of 5 ml/min. A standard breakfast was given 5-10 min after application of DDAVP, and a standardized meal 4 h later. From 2 h after start onwards the volunteers were given 100 ml/h water orally. Each volunteer participated in three sessions.
Bioavailability was determined for each subject in a separate session by intravenous bolus injection of DDAVP (4 μg); blood samples were drawn before and up to 8 h after drug application and analyzed for DDAVP as described above.

[2] = pH 6.5
Experimental: (§1) Human gastro-intestinal juice was obtained from healthy male volunteers who had been fasting for 8 h. A tube was introduced intranasally after local anaesthesia with xylocaine, and gastric juice was collected. Thereafter one standardized meal was given 1 h before sampling of duodenal and distal jejunum juice and another the next morning before the collection of distal ileal juice. After centrifugation the gastric and intestinal juices were frozen in aliquots of 1 ml and stored at -20° C.
(§2) The peptide or peptide analog (10 μl of 10 mM peptide in 0.9% aqueous NaCl) was added to 190 μl of undiluted juice at 37° C. Aliquots of 25 μl were withdrawn at intervals and mixed with 100 μl acetone to stop the reaction. After centrifugation for 10 min at 10,000 g, 10 μl of the supernatant was analyzed by reversed phase HPLC. The effects of increasing amounts of aprotinin were examined under the above conditions in intestinal juice from the ileum.
(§3) Analysis was carried out in a Varian 5000 HPLC analyzer equipped with a UV-detector (220 nm). Column Bondapak TM C18 (3.9×300 mm), eluant MeOH/0.025M NH4 Ac (isocratic conditions), flow rate 1 ml/min.

[3] = in the presence of aprotinin, rat; cited from earlier work
[4] = Degradation of peptide in human gastro-intestinal juice (HPLC); settings: intestinal juice from the ileum, pH 6.5, increasing amounts of aprotinin
Experimental: as §1, §2, §3

NC(=O)CC[C@@H]1NC(=O)[C@H](Cc2ccccc2)NC(=O)[C@H](Cc2ccc(O)cc2)NC(=O)CCSSC[C@@H](C(=O)N2CCC[C@H]2C(=O)N[C@H](CCCN=C(N)N)C(=O)NCC(N)=O)NC(=O)[C@H](CC(N)=O)NC1=O [DDAVP, desmopressin]
Increase of DDAVP absorption in presence of aprotinin [1]: about five-fold | DDAVP absorption (bioavailability) ([1]; male, 0.4 mg): about 0.1 % by weight | DDAVP degraded to (after 35 min) [2]: about 50%

(1-deamino-4-valine)-8-D-arginine-vasopressin
Urine retention after gastric administration of an aqueous solution [3]: moderately enhanced

aprotinin
Inhibition of DDAVP degradation by aprotinin [4]: concentration-dependent inhibition
